Measured values taken from US8445690B2, “Aminothiazolones as estrogen related receptor-alpha modulators” (Janssen Pharmaceutica NV, priority 2010, dated 2013).

Target: T1, ERR1 (also known as ERR-α or ERR-1) (Homo sapiens, UniProt P11474)
T1 sequence (P11474 193-421 limits assumed): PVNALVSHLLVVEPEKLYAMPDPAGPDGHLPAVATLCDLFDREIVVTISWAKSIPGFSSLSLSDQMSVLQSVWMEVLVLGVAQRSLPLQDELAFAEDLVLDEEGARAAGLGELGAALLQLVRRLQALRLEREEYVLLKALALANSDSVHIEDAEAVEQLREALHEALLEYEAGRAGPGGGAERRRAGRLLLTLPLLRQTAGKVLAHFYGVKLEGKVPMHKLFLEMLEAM
Assay: TR-FRET assay: disruption of co-activator peptide (GST-hSRC2) binding to 6His-tagged ERR1 LBD
Assay type: biochemical
Details: 6 nM ERR1LBD, 6 nM GST-SRC-2 peptide, 25° C., 4-18 hours; average of 3 independent experiments
Experimental: Time-Resolved Fluorescence Resonance Energy Transfer (TR-FRET) experiments were performed to examine the functional response of ERR1 (also known as ERR-α or ERR-1) ligands. The TR-FRET assay described herein relied on the conformation of ERR1 for binding to a co-activator peptide: when a test compound binds to ERR1 and alters its conformation, it can disrupt the binding of the co-activator peptide. The components of this homogeneous secondary assay included: the ^6His-tagged-ERR1LBD, a GST-labeled-hSRC2 co-activator polypeptide and a fluorescent donor/acceptor pair from CIS bio international htrf/bioassays (Bedford, Mass.) using both an α-GST Europium Cryptate (Eu) label and an α^6His-XL665 (allophycocyanin) fluorophore.
For TR-FRET measurements, the reaction was buffered in 25 mM Tris pH 8, 2.5 mM Hepes, 20 mM KCl, 1 mM DTT, and 0.05 mg/mL BSA (-lipids). The final concentrations of reagents were 6 nM of ERR1LBD, 6 nM GST-SRC-2 peptide, 30 nM Eu cryptate, and 7.5 nM XL665. Reactions were allowed to reach equilibrium at 25° C. for 4-18 hours before collecting data on the Analyst from LJL Biosystems (Molecular Devices Sunnyvale, Calif.). As a time-resolved method, the samples were excited at […] and emission was collected for 1 ms at both 615 and 665 nm with delays of 400 and 75 μs, respectively. Dose response curves were fitted using a hyperbolic equation and the data reported is the average of 3 independent experiments.
Compounds listed in Tables II below were tested in the above assay, and they are all active modulators of ERR1.

O=C1N=C(N[C@H]2CN3CCC2CC3)S/C1=C\c1ccc2c(cnn2Cc2ccc(Cl)cc2C(F)(F)F)c1 [Compound 28, 2-(1-Aza-bicyclo[2.2.2]oct-3(R)-ylamino)-5-[1-(4-chloro-2-trifluoromethyl-benzyl)-1H-indazol-5-ylmethylene]-thiazol-4-one]
EC50: 6 nM

O=C1N=C(N[C@@H]2CN3CCC2CC3)S/C1=C\c1ccc2c(cnn2Cc2ccc(C(F)(F)F)cc2C(F)(F)F)c1 [Compound 29, 2-(1-Aza-bicyclo[2.2.2]oct-3(S)-ylamino)-5-[1-(2,4-bis-trifluoromethyl-benzyl)-1H-indazol-5-ylmethylene]-thiazol-4-one]
EC50: 39 nM

O=C1N=C(NCc2cncnc2)S/C1=C\c1ccc2c(cnn2Cc2ccc(C(F)(F)F)cc2C(F)(F)F)c1 [Compound 30, 5-[1-(2,4-Bis-trifluoromethyl-benzyl)-1H-indazol-5-ylmethylene]-2-[(pyrimidin-5-ylmethyl)-amino]-thiazol-4-one]
EC50: 11 nM

NS(=O)(=O)CCNC1=NC(=O)/C(=C/c2ccc3c(cnn3Cc3ccc(C(F)(F)F)cc3C(F)(F)F)c2)S1 [Compound 31, 2-{5-[1-(2,4-Bis-trifluoromethyl-benzyl)-1H-indazol-5-ylmethylene]-4-oxo-4,5-dihydro-thiazol-2-ylamino}-ethanesulfonic acid amide]
EC50: 37 nM

O=C1N=C(NCc2cncnc2)S/C1=C\c1ccc2c(cnn2Cc2ccc(Cl)cc2C(F)(F)F)c1 [Compound 32, 5-[1-(4-Chloro-2-trifluoromethyl-benzyl)-1H-indazol-5-ylmethylene]-2-[(pyrimidin-5-ylmethyl)-amino]-thiazol-4-one]
EC50: 8.6 nM

O=C1N=C(NCCC2CCOCC2)S/C1=C\c1ccc2c(cnn2Cc2ccc(C(F)(F)F)cc2C(F)(F)F)c1 [Compound 33, 5-[1-(2,4-Bis-trifluoromethyl-benzyl)-1H-indazol-5-ylmethylene]-2-[2-(tetrahydro-pyran-4-yl)-ethylamino]-thiazol-4-one]
EC50: 260 nM

O=C1N=C(NCCN2CCCC2=O)S/C1=C\c1ccc2c(cnn2Cc2ccc(C(F)(F)F)cc2C(F)(F)F)c1 [Compound 34, 5-[1-(2,4-Bis-trifluoromethyl-benzyl)-1H-indazol-5-ylmethylene]-2-[2-(2-oxo-pyrrolidin-1-yl)-ethylamino]-thiazol-4-one]
EC50: 30.8 nM

Cc1nnc(CNC2=NC(=O)/C(=C/c3ccc4c(cnn4Cc4ccc(Cl)cc4C(F)(F)F)c3)S2)[nH]1 [Compound 35, 5-[1-(4-Chloro-2-trifluoromethyl-benzyl)-1H-indazol-5-ylmethylene]-2-[(5-methyl-4H-[1,2,4]triazol-3-ylmethyl)-amino]-thiazol-4-one]
EC50: 11.2 nM

Cc1nnc(CNC2=NC(=O)/C(=C/c3ccc4c(cnn4Cc4ccc(C(F)(F)F)cc4C(F)(F)F)c3)S2)[nH]1 [Compound 36, 5-[1-(2,4-Bis-trifluoromethyl-benzyl)-1H-indazol-5-ylmethylene]-2-[(5-methyl-4H-[1,2,4]triazol-3-ylmethyl)-amino]-thiazol-4-one]
EC50: 4.8 nM

O=C(O)CCCNC1=NC(=O)/C(=C/c2ccc3c(cnn3Cc3ccc(Cl)cc3C(F)(F)F)c2)S1 [Compound 37, 4-{5-[1-(4-Chloro-2-trifluoromethyl-benzyl)-1H-indazol-5-ylmethylene]-4-oxo-4,5-dihydro-thiazol-2-ylamino}-butyric acid]
EC50: 18 nM

O=C1N=C(NC(CO)CO)S/C1=C\c1ccc2c(cnn2Cc2ccc(Cl)cc2C(F)(F)F)c1 [Compound 38, 5-[1-(4-Chloro-2-trifluoromethyl-benzyl)-1H-indazol-5-ylmethylene]-2-(2-hydroxy-1-hydroxymethyl-ethylamino)-thiazol-4-one]
EC50: 56.8 nM

CN1CCN(CCNC2=NC(=O)/C(=C/c3ccc4c(cnn4Cc4ccc(Cl)cc4C(F)(F)F)c3)S2)CC1 [Compound 39, 5-[1-(4-Chloro-2-trifluoromethyl-benzyl)-1H-indazol-5-ylmethylene]-2-[2-(4-methyl-piperazin-1-yl)-ethylamino]-thiazol-4-one]
EC50: 6.6 nM

CNC(=O)CNC1=NC(=O)/C(=C/c2ccc3c(cnn3Cc3ccc(Cl)cc3C(F)(F)F)c2)S1 [Compound 41, 2-{5-[1-(4-Chloro-2-trifluoromethyl-benzyl)-1H-indazol-5-ylmethylene]-4-oxo-4,5-dihydro-thiazol-2-ylamino}-N-methyl-acetamide]
EC50: 7.7 nM

O=C1N=C(NCc2c[nH]nn2)S/C1=C\c1ccc2c(cnn2Cc2ccc(Cl)cc2C(F)(F)F)c1 [Compound 42, 5-[1-(4-Chloro-2-trifluoromethyl-benzyl)-1H-indazol-5-ylmethylene]-2-[(1H-[1,2,3]triazol-4-ylmethyl)-amino]-thiazol-4-one]
EC50: 10 nM

O=C1N=C(NCc2c[nH]nn2)S/C1=C\c1ccc2c(cnn2Cc2ccc(C(F)(F)F)cc2C(F)(F)F)c1 [Compound 43, 5-[1-(2,4-Bis-trifluoromethyl-benzyl)-1H-indazol-5-ylmethylene]-2-[(1H-[1,2,3]triazol-4-ylmethyl)-amino]-thiazol-4-one]
EC50: 19 nM

O=C1N=C(N[C@H]2CC[C@@H](C(=O)O)CC2)S/C1=C\c1ccc2c(cnn2Cc2ccc(Cl)cc2C(F)(F)F)c1 [Compound 44, (S,S)-4-{5-[1-(4-Chloro-2-trifluoromethyl-benzyl)-1H-indazol-5-ylmethylene]-4-oxo-4,5-dihydro-thiazol-2-ylamino}-cyclohexanecarboxylic acid]
EC50: 15 nM

O=C1N=C(NC2(C(=O)O)CC2)S/C1=C\c1ccc2c(cnn2Cc2ccc(Cl)cc2C(F)(F)F)c1 [Compound 45, 1-{5-[1-(4-Chloro-2-trifluoromethyl-benzyl)-1H-indazol-5-ylmethylene]-4-oxo-4,5-dihydro-thiazol-2-ylamino}-cyclopropanecarboxylic acid]
EC50: 9.7 nM

O=C(O)CC(O)CNC1=NC(=O)/C(=C/c2ccc3c(cnn3Cc3ccc(Cl)cc3C(F)(F)F)c2)S1 (centres unmarked) [Compound 46, 4-{5-[1-(4-Chloro-2-trifluoromethyl-benzyl)-1H-indazol-5-ylmethylene]-4-oxo-4,5-dihydro-thiazol-2-ylamino}-3-hydroxy-butyric acid]
EC50: 22 nM

O=C1N=C(N[C@@H]2CNC[C@H]2O)S/C1=C\c1ccc2c(cnn2Cc2ccc(Cl)cc2C(F)(F)F)c1 [Compound 47, (5Z)-5-({1-[4-Chloro-2-(trifluoromethyl)benzyl]-1H-indazol-5-yl}methylidene)-2-{[(3R,4R)-4-hydroxypyrrolidin-3-yl]amino}-1,3-thiazol-4(5H)-one]
EC50: 37 nM

CN1CCN(CCNC2=NC(=O)/C(=C/c3ccc4c(c3)c(I)nn4Cc3ccc(C(F)(F)F)cc3C(F)(F)F)S2)CC1 [Compound 48, 5-({1-[2,4-Bis(trifluoromethyl)benzyl]-3-iodo-1H-indazol-5-yl}methylidene)-2-{[2-(4-methylpiperazin-1-yl)ethyl]amino}-1,3-thiazol-4(5H)-one]
EC50: 5 nM
